Results from patent publication US5691348A, “Pyridyl imidazole derivatives and processes for the preparation thereof” (Daewoo Electronics Co., Ltd., priority 1994, dated 1997).

Experiments:
renal hypertensive rats = assay: Duration of action in renal hypertensive rats; format: in vivo, Sprague-Dawley rat; settings: 3 mg/kg oral
Description: To induce renal hypertension, left renal artery of 4 week-old male Sprague-Dawley rat (from The Korea Research Institute of Chemical Technology) was ligated. The rat was anesthetized with ether and the surgical region on the left abdomen of the rat was shaved, disinfected, and then incised about 1 cm vertically. The renal artery near abdominal aorta was isolated carefully from surrounding tissues and veins, and then ligated completely with a suture (4/0 sterile surgical silk). The muscular strata and skin of the surgical area were sutured with a suture (4/0 sterile surgical silk). The surgical region was disinfected to prevent infection and thereafter, 200 to 250 mg/kg/day of cephazolin sodium was injected intramuscularly for 2 days. 6 to 8 days after the ligation, rats showing systolic pressure of more than 180 mmHg were selected for renal hypertension test. The blood pressure was determined by a tail-cuff method from the tail under unanesthetized condition (Gerold, M. et al., Arzneimittel-Forsch., 18, 1285(1968)).
Each of the compounds to be tested was administered intravenously or orally into the renal hypertensive rat. The blood pressure of the rat was determined by direct method (Chiu, A. T. et al., J. Pharmacol. Exp. Ther., 250, 867(1989)) using a catheter. The rat was anesthetized with ketamine hydrochloride (125 mg/kg, i.p.) and a catheter was filled with saline and inserted into a carotid artery and […]. The surgical area was sutured with a metal clip. The rat was relaxed at least 3 hours and the catheter in the carotid artery was adapted to an isotec pressure transducer to determine the blood pressure and heart rate with a physiograph (Linearcorder WR3310). After the blood pressure was stabilized, the test compound was administered intravenously or orally. For intravenous administration, the administered volume and washing volume were 1.0 ml/kg and 0.2 ml, respectively. The blood pressure and heart rate were measured in regular intervals up to 24 hours after the administration of the test compound and compared with those measured after the administration of the control compound Losartan.
The test compound was dissolved in 0.05N KOH for intravenous administration and suspended in Tween 80 for oral administration.
The compound of Example 1 and the Merck compound were tested using the hypertensive rats of test 2(i). 3 mg/kg of each compound was administered orally and blood pressure lowering effect with time was determined to measure the duration of action of the compounds.

angiotensin II receptor = assay: Angiotensin II receptor binding assay ([3H] angiotensin II); parameters: species or system rat (Sprague-Dawley adrenal cortex/medulla; Wistar liver); settings: 25° C., 60 minutes, test concentration not given
Experimental: 1. Angiotensin II receptor binding assay
In accordance with the procedure disclosed in Chiu, A. T. et al., Eur. J. Pharm., 157, 13(1981), a ligand marked with a radioisotope was reacted with an angiotensin II receptor and the reactant was filtered with a glass fiber to remove unreacted ligand. After washing the filter, the amount of the remaining isotope was measured to determine the binding activity of the ligand, as described below in detail.
Sprague-Dawley rats and Wistar rats of 250 to 350 g (from The Korea Research Institute of Chemical Technology) were tested and the test procedures were carried out at 4° C., unless otherwise specified. Adrenal gland was separated from the Sprague-Dawley rats (liver, in the case of Wistar rats) into cortex and medulla. The separated adrenal cortex and medulla were washed with a sucrose buffer solution (0.2M sucrose, 1 mM EDTA, 10 mM Tris, Ph 7.2) and homogenized in the same buffer solution by using a Teflon pestle and a Brinkmann homogenizer. The homogenates were centrifuged at 3,000× g for 10 minutes to remove precipitates and further centrifuged at 12,000× g for 13 minutes. The final supernatants were centrifuged at 102,000× g for 1 hour to obtain precipitates, which were washed with a Tris buffer solution (50 mM Tris, 5 mM MgCl2, pH 7.2) and recentrifuged at 102,000× g for 1 hour. The resulting precipitates were immediately processed at the following step or stored at -70° C.
The precipitates were suspended in a Tris buffer solution. The amount of protein was determined by using a Bio-Rad DC protein analyzing kit and the protein concentration was adjusted to the amounts of: 0.2 to 0.3 mg/ml (Sprague-Dawley rat: adrenal cortex), 1.5 to 2.0 mg/ml (Sprague-Dawley rat: adrenal medulla), and 1.5 to 2.0 mg/ml (Wistar rat: liver). To the suspension, bovine serum albumin(BSA) was added to a concentration of 0.25 wt % and the resultant was immediately processed at the following step or stored at -70° C.
50 μl (based on ligand) of [^3 H] angiotensin II (NEN, NET-446) and 10 μl of each of the test compounds with various concentrations were added to the buffer solution (50 mM Tris (pH 7.2), 5 mM MgCl2, 0.25% BSA) to adjust the final volume to be 0.5 ml. 100 μl of the receptor suspension was added thereto and the resulting solution was reacted for 60 minutes while stirring in a water bath at 25° C. 3 ml of cold buffer solution for analysis was added to cease the reaction. The isotope which was bound to the receptor was isolated from the resultant by using Brandel Cell Harvester System with Whatman glass fiber GF/C. After washing the filter, the radioactivity of the filter was determined by using a liquid scintillation counter. Binding inhibition(%) of the test compound was calculated as follows:
Binding Inhibition(%)=[{(T-B)-(S-B)}/(T-B)]×100
wherein T is the radioactivity (cpm) of the reaction product untreated with the test compound, S is the radioactivity (cpm) of the reaction product treated with the test compound, and B is the radioactivity (cpm) of blank test.

unanesthetized dogs = assay: Blood pressure variation with time in unanesthetized dogs; format: in vivo, dog; settings: 1.0 mg, oral
Experimental: A number of dog was fed freely in a feeding room and those weighing 7 to 12 kg in good health were selected regardless of their gender.
The test dog was anesthetized with 30 mg/kg of pentobarbital sodium by intravenous injection and the left femoral artery and femoral vein were separated carefully. Silicone catheter, specially prepared and filled with saline treated with heparin (1,000 IU/ml), was cannulated into the blood vessels. After the surgery, the dog was constrained to measure the blood pressure continuously with Gould 2000 physiograph adapted to a Grass P23XL pressure transducer; and the heart rate was monitored with ECG/Biotacho amplifier. The dog was tested at least 2 days after the surgery.
10 mg/kg of furosemide was injected intramuscularly 18 hours (in case of intravenous injection, 2 hours) before the beginning of the test (administration of the test compound) to improve the activity of renin in blood plasma. After the injection of furosemide, neither food nor water was provided. […] The blood pressure and heart rate were measured up to 8 hours after the administration of each test compound.

Binding Inhibition (angiotensin II receptor): 85.4%
SMILES: CCCCc1nc2cc(-c3cccc[n+]3[O-])c(CO)nc2n1Cc1ccc(-c2ccccc2-c2nn[nH]n2)cc1 [Example 1, 2-Butyl-5-hydroxymethyl-6-(1-oxy-pyridin-2-yl)-3-[2'-(1H-tetrazol-5-yl)-biphenyl-4-ylmethyl]-3H-imidazo[4,5-b]pyridine]
Maximum Blood Pressure Lowering Effect (renal hypertensive rats; 0 min): 0%
Maximum Blood Pressure Lowering Effect (renal hypertensive rats; 10 min): -11%
Maximum Blood Pressure Lowering Effect (renal hypertensive rats; 20 min): -19%
Maximum Blood Pressure Lowering Effect (renal hypertensive rats; 30 min): -32%
Maximum Blood Pressure Lowering Effect (renal hypertensive rats; 60 min): -48%
Maximum Blood Pressure Lowering Effect (renal hypertensive rats; 90 min): -42%
Maximum Blood Pressure Lowering Effect (renal hypertensive rats; 120 min): -44%
Maximum Blood Pressure Lowering Effect (renal hypertensive rats; 240 min): -58%
Maximum Blood Pressure Lowering Effect (renal hypertensive rats; 360 min): -60%
Maximum Blood Pressure Lowering Effect (renal hypertensive rats; 1320 min): -48%
Maximum Blood Pressure Lowering Effect (renal hypertensive rats; 1440 min): -49%
duration of action compared with the Merck compound (renal hypertensive rats; renal hypertensive rats): far longer duration of action than the Merck compound
Maximum Blood Pressure Lowering Effect (unanesthetized dogs; 0.5 hr): -17.5%
Maximum Blood Pressure Lowering Effect (unanesthetized dogs; 1 hr): -21.4%
Maximum Blood Pressure Lowering Effect (unanesthetized dogs; 2 hr): -23.6%
Maximum Blood Pressure Lowering Effect (unanesthetized dogs; 4 hr): -24.8%
Maximum Blood Pressure Lowering Effect (unanesthetized dogs; 6 hr): -21.7%
Maximum Blood Pressure Lowering Effect (unanesthetized dogs; 8 hr): -13.2%
